Data set [1] has as its system hTGF-β1 promoter. The experiment in a line: Transient transfection and luciferase assay in hVSMC. Type of data set: cell-based, human. The settings on record: for expression of luciferase driven by hTGF-β1 promoter: 10^−9 M, 24 hr incubation. As to the method:
One microgram of the luciferase gene which was controlled by the hTGF-β1 promoter was transfected for 6 hr in sterilized medium using lipofectin reagent. After 24 hr of the transfection, cells were incubated for 24 hr in a medium containing 0.5% CS in the presence (or absence) of the polyamide or the mismatched polyamide, and the luciferase activity was assayed in these cells extracts using a dual luciferase/reporter gene assay system. One hundred μL of luciferase substrate was mixed with 20 μL cell extracts. After the mixing, the reaction mixture was placed in a luminometer (Turner Designs-Bioblock, Illkirch, France), and the light emitted for ten seconds at room temperature was measured. PMA was used as a positive control. Comparison with the control *P<0.05.
(§1) The 2.2 kb fragment containing the hTGF-β1 promoter derived from plasmid phTBG 101 (non-patent document 10) was isolated and inserted to pGL3 basic plasmid (Promega, Madison, Wis.) at the upstream of the coding region of luciferase reporter gene. The accurate structure of the constructed plasmid was identified by spectral analysis with restriction enzymes analysis and sequencing.
hVSMC cells were cultured at a density of […] in 24 well plates in the presence of 10% CS. After 24 hr, the reporter gene that was driven by the hTGF-β1 promoter was transfected using Lipofectin reagent (GibcoBRL) in the presence of 1 μg DNA in the sterilized medium, according to the method indicated by the manufacturer. Cells were incubated with the DNA liposome complex for 6 hours, and then the medium was exchanged to 1 ml of fresh complete medium. […] After brief centrifugation, luciferase activity in the cell extracts was measured using a dual-luciferase reporter gene assay system (Promega, Madison, Wis.). […] After mixing, the reaction mixture was placed in a luminometer (Turner Designs-Bioblock, Illkirch, France), and the light emitted for ten seconds at room temperature was measured.

In data set [2] the test system is hTGF-β1 promoter. Put plainly: In vitro transcription reaction with HeLa nuclear extract. It is filed as biochemical, human. The settings on record: HeLa nuclei extract, hTGF-β1 promoter template, 30° C., 60 min. As to the method: One microgram of a plasmid was incubated in the transcription buffer with 8 U of HeLa nucleus extract, 3 kinds of non-labeled nucleotide triphosphates (UTP, CTP, GTP) at […] each, and 25 μM α-^32P-ATP at 30° C. for 60 min. The reaction was terminated by adding 175 μl of HeLa extract stop solution, and then phenol-chloroform-isoamyl alcohol extraction and ethanol precipitation were carried out. Samples were re-suspended in 98% […] loading dye and heated at 90° C. for 10 min before loading a 6%, 7 M urea-polyacrylamide gel. The gel was dried and visualized by autoradiography;
as §1
In vitro transcription reactions were carried out using nuclear extracts of Hela cells and the in vitro transcription system (Promega, Madison, Wis.). […]

For data set [3], the system named is double stranded oligonucleotide corresponding to the base pairs from −548 to −537 of hTGF-β1 promoter. Put plainly: Gel-shift assay: binding of polyamide to double stranded oligonucleotide. The settings on record: binding buffer, 37° C., 15 min; 20% polyacrylamide gel, autoradiography. Set-up: species or system human. The method, then:
The double stranded DNA corresponding to the base pair sequence from −548 to −537 of the hTGF-β1 promoter (FIG. 1) was labeled by T4 polynucleotide using [γ-^32P]-ATP and incubated in a binding buffer at 37° C. for 15 min together with mismatch polyamide (lane 0) or with increasing amount of the polyamide (lane 1, 2 and 3 was 1 nM, 2 nM and 4 nM, respectively). The complexes thus obtained were electrophoresed on a 20% polyacrylamide gel and visualized by autoradiography.
Oligonucleotides were synthesized, annealed, and 12 kinds of double stranded oligonucleotides were produced corresponding to the base pairs from −548 to −537 of hTGF-β1 promoter (FIG. 1A). The double stranded DNAs were labeled with [γ-^32P]-ATP using T4 polynucleotide kinase, and incubated in a binding buffer (40 mM Tris, pH 7.9, 250 mM NaCl, 25 mM EDTA, 25 mM DTT, 100 mM KCl) with the polyamides or mismatched polyamides at 37° C. for 15 min. The complexes thus obtained were electrophoresed by 20% polyacrylamide gel and visualized by autoradiography.

In another data set the test system is hTGF-β1 mRNA. The experiment in a line: RT-PCR assay of hTGF-β1 mRNA in hVSMC. Type of data set: cell-based, human. The settings on record: for expression of hTGF-β1 mRNA: 10^−9 M, 24 hr, TPA induced. The method, then:
Treatment with 50 ng/mL of TPA was used as a positive control. […] (A) Five microliters of PCR product was separated on a 1.5% agarose gel electrophoresis. […] Cultured cells were washed with PBS, dissolved in 800 μL of RNAzolB (Biotex Laboratories, Inc., Houston, Tex.), mixed with 80 μL of chloroform and centrifuged. The colorless upper aqueous phase was mixed with an equal volume of isopropanol to precipitate RNA. RNA pellet was washed twice with 500 μL of 75% ethanol and, after drying, dissolved in 10 μL of TE buffer. After denaturing at 65° C. for 15 min, the RNA sample was treated with 0.5 U DNase (Gibco) in 0.5 ml of DNase buffer (20 mM Tris-HCl pH 8.3, 50 mM KCl, 2.5 mM MgCl2) at room temperature for 45 min. DNase was denatured by adding 0.5 ml of 0.5M EDTA and heating at 98° C. for 10 min. RNA aliquots of an equal amount (1 μg/20 μL) were reverse transcribed to single stranded cDNAs using 2.5 U/20 μL of avian myeloblastosis virus reverse transcriptase (Takara Biochemicals, Osaka, Japan) in 10 mM Tris-HCl (pH 8.3), 5 mM MgCl2, 50 mM KCl, 1 mM deoxy NTPs and 2.5 μM random hexamers. Two microliters of the diluted cDNA product was made up to 25 μl by mixing with 10 mM Tris-HCl (pH 8.3), 50 mM KCl, 4 mM MgCl2, 0.025 U/μL Taq DNA polymerase (Takara Biochemicals, Osaka, Japan), and 0.2 μM each of the upstream sense primer and downstream antisense primer. […] For human 18S ribosomal RNA, the sense primer ([…] NO: 6) and the antisense primer ([NT] ID NO: 7) were used as the internal control. PCR was carried out with an automatic heat controller (Perkin Elmer, Foster, Calif.). The PCR conditions were: initial denaturation, at 94° C. for 2 min; 30 cycles of denaturation at 94° C. for 1 min, annealing at 58° C. for 1 min and extension at 72° C. for 1 min; last extension at 72° C. for 1 min. As an internal control, PCR with primers for 18S rRNA was included in each reaction. […] For semi-quantitative analysis of mRNA, the kinetics of PCR was monitored. […] The intensity of the bands was measured by computer analysis using NIH software.

Another data set relates to hTGF-β1 protein. The experiment in a line: Western blot analysis of hTGF-β1 protein in hVSMC. It is filed as cell-based, human. The conditions noted are these: 10^−9 M, 24 hr incubation. The method, then: 10^−9 M of the polyamide was added to medium of cultured hVSMC and incubated for 24 hr. (A) The expression of hTGFβ1 protein was investigated by Western blot analysis.
Test VSMC and control VSMC were incubated in 6-well plates for 24 hr, washed twice with PBS and incubated on ice in 300 μL of lysis buffer (50 mM Tris-HCl (pH 8.0), 150 mM NaCl, 1 mM EDTA, 1 mM phenylmethylsulfonyl fluoride, 1 μg/mL aprotinin, 1% Triton X-100) for 30 min. Cells were scraped into a 1.5 mL tube and centrifuged, and the supernatant was collected. The protein content of the supernatant was assayed by Bradford protein assay using BIO-RAD protein assay kit (Bio-Rad Lab, Hercules, Calif.). The supernatant contained 20 μg of total protein, which was denatured at 100° C. for 3 min in the loading buffer, electrophoresed on a 10% polyacrylamide gel and transferred to a nitrocellulose membrane. The membrane was incubated at room temperature for 1 hr with mouse monoclonal antibody with specificity to hTGF-β1 (1:500) (R&D systems, Minneapolis, Minn.), and then incubated at room temperature for 1 hr with anti-mouse HRP conjugated secondary antibody at 1:2000. After washing sufficiently, the membrane was incubated with an […] luminescence substrate (Amersham Life Service, Buckinghamshire, UK) and exposed to an X-ray film.
In general terms: Immunoblotting shows a protein as a band on a membrane.

Description for cultured hVSMC: FITC labeled polyamide was added directly to the culture medium at the concentration of 10^−9 M and observed under a fluorescent microscope.
hVSMC was obtained from Clonetics (Walkersville, Md.). hVSMC was cultured in Dulbecco's modified Eagle's medium (DMEM) containing 10% calf serum (Gibco Life Technologies, Gaithersburg, Md.), 100 U/ml penicillin and 100 mg/ml streptomycin. Cells were passaged by trypsin treatment with 0.05% trypsin (Gibco) in Ca^2+-free and Mg^2+-free phosphate buffered saline (PBS) and cultured in 75-cm^2 tissue culture flasks. The medium was exchanged every four or five days, and experiments were carried out on cells during 5-10 passages.
Passaged hVSMC was cultured at a density of 10^5/cm^2 for 24 hr in a 24-well flask. FITC-labeled polyamides were directly added to the medium at a concentration of 10^−9 M and observed every one hour under a florescent microscope.

“Ac-PPP-β-IPP-γ-PPP-β-COOH [mismatch polyamide]”: the “expression of luciferase driven by hTGF-β1 promoter” value in the data set on hTGF-β1 promoter [1] is listed as “had no effect”. In addition, the “transcription in in vitro transcription system” value in the data set on hTGF-β1 promoter [2] is reported as “did not show any significant effect”. In addition, the “binding to the corresponding 12 base pairs double stranded oligonucleotide” value in data set [3] is on record as “failed to bind”. The “expression of hTGF-β1 mRNA” value in the data set with hTGF-β1 mRNA was “did not”.
In the case of `CCCCCCCCCCCCCC(=O)O[C@@H]1[C@@H](C)[C@@]2(O)[C@@H](C=C(CO)C[C@]3(O)C(=O)C(C)=C[C@@H]23)[C@H]2C(C)(C)[C@]12OC(C)=O` [TPA], the “expression of luciferase driven by hTGF-β1 promoter (positive control)” value in the data set on hTGF-β1 promoter [1] (positive control) was “stimulated the expression of luciferase protein”. For the same molecule, the “expression of hTGF-β1 mRNA (positive control)” value with hTGF-β1 mRNA (50 ng/mL) is given as “significantly stimulated the expression of hTGF-β1 mRNA”.
Regarding `CN(C)CCCNC(=O)CCNC(=O)c1cc(NC(=O)c2cc(NC(=O)CCNC(=O)c3cc(NC(=O)c4cc(NC(=O)c5cc(NC(=O)CCCNC(=O)c6cc(NC(=O)c7cc(NC(=O)c8nc(NC(=O)CCNC(=O)c9cc(NC(=O)c%10cc(NC(=O)c%11nc(NC(=O)CCNC(=S)Nc%12ccc%13c(c%12)C(=O)OC%13%12c%13ccc(O)cc%13Oc%13cc(O)ccc%13%12)cn%11C)cn%10C)cn9C)cn8C)cn7C)cn6C)cn5C)cn4C)cn3C)cn2C)cn1C` [compound 4a, FITC-β-IPP-β-IPP-γ-PPP-β-PP-β Dp], in the data set on cultured hVSMC, the “detection of FITC in the nuclei of cultured hVSMC” value was “detected in the nuclei of cultured hVSMC at a high density” and the “time FITC labeled polyamide remains in the nucleus of cultured hVSMC” value is listed as “more than 48 hr”.
For the molecule `CC(=O)Nc1cn(C)c(C(=O)Nc2cc(C(=O)Nc3cc(C(=O)NCCC(=O)Nc4cn(C)c(C(=O)Nc5cc(C(=O)Nc6cc(C(=O)NCCCC(=O)Nc7cc(C(=O)Nc8cc(C(=O)Nc9cc(C(=O)NCCC(=O)Nc%10cc(C(=O)Nc%11cc(C(=O)NCCC(=O)O)n(C)c%11)n(C)c%10)n(C)c9)n(C)c8)n(C)c7)n(C)c6)n(C)c5)n4)n(C)c3)n(C)c2)n1` [compound 4b, Ac-IPP-β-IPP-γ-PPP-β-PP-βCOOH], the “expression of luciferase driven by hTGF-β1 promoter” value in the data set with hTGF-β1 promoter [1] is “significantly downregulated the expression of luciferase”. For the same molecule, the “transcription in in vitro transcription system” value in the data set with hTGF-β1 promoter [2] is given as “reduce transcription”. The “expression of hTGF-β1 protein” value in the data set with hTGF-β1 protein is reported as “inhibited the expression of hTGF-β1 protein”. Further, in data set [3], the “binding to the corresponding 12 base pairs double stranded oligonucleotide” value is on record as “able to bind”. For the same molecule, the “expression of hTGF-β1 mRNA” value in the data set with hTGF-β1 mRNA is “inhibited the expression of hTGF-β1 mRNA induced by TPA”.

Values taken from patent publication US7807844B2, “TGF-β gene expression inhibitor” (Nihon University, priority 2003, dated 2010).
